Assay results: patent US5068247A, “2-aminopentanoic acid compounds and their use as immunosuppressants” (priority 1989, dated 1991)
Read-outs that look alike come from different tables or passages of the source.

Experiments:
Type in all cases: cell-based
[1] = test system: IL-2 production in PHA-stimulated mouse spleen cells; experiment: suppression of IL-2 production in PHA-stimulated mouse spleen cells; settings: for inhibition at 0.001 µg/mL / inhibition at 0.01 µg/mL / inhibition at 0.1 µg/mL / inhibition at 1 µg/mL: Mus musculus, 24 h, read-out: Suppression
Protocol: (§1) The suppression of IL-2 and IL-3 production in the mitogen-stimulated mouse spleen cells was examined as follows:
(§2) The spleen was resected from 5- to 8-week-old male C3H/HeN mice, and a single cell suspension of spleen cells was prepared by using the RPMI1640 culture medium. After hemolytic treatment, the concentration of the suspension was adjusted to 10^7 cells/ml by using the RPMI1640 culture medium supplemented with 20% FCS, to which 10 μg/ml of phytohemagglutinin (PHA) was added as mitogen. […] After termination of culture, the supernatant was collected and used as the culture supernatant of PHA-stimulated mouse spleen cells.
The IL-2 activity in the culture supernatant of PHA-stimulated mouse spleen cells was assayed as follows:
IL-2 dependent mouse cell line CTLL-2 cells were suspended in the RPMI1640 culture medium supplemented with 30% FCS to the concentration of 2×10^5 cells/ml. One hundred μl of the cell suspension and 100 μl of the two-fold serial dilution of the culture supernatant of PHA-stimulated mouse spleen cells were added to a 96-well flat-bottomed microtest plate. […] The IL-2 activity is expressed in U/ml as the dilution at which the absorbancy measured by MTT method was 50% of the maximum.

CTLL-2 cells = experiment: suppression of proliferation of IL-2-dependent mouse cell line CTLL-2 induced by IL-2; settings: IL-2 50 U/ml; for inhibition at 0.001 µg/mL / inhibition at 0.01 µg/mL / inhibition at 0.1 µg/mL / inhibition at 1 µg/mL: Mus musculus, CTLL-2, 68 h
Protocol: IL-2-dependent mouse cell line CTLL-2 cells were suspended in the RPMI1640 culture medium supplemented with 30% FCS to the concentration of 4×10^5 cells/ml. Fifty μl of the cell suspension, 50 μl of 200 U/ml recombinant human IL-2 (rhIL-2) and 100 μl of the test substance were added to a 96-well flat-bottomed microtest plate. […] The percent suppression (%) was calculated by the following formula. [formula]

[2] = test system: IL-3 production in PHA-stimulated mouse spleen cells; experiment: suppression of IL-3 production in PHA-stimulated mouse spleen cells; settings: for inhibition at 0.001 µg/mL / inhibition at 0.01 µg/mL / inhibition at 0.1 µg/mL / inhibition at 1 µg/mL: Mus musculus, 24 h, read-out: Suppression
Protocol: as §1, §2
The IL-3 activity was assayed as follows:
IL-3-dependent mouse cell line FDC-P2 cells were suspended in the RPMI1640 culture medium supplemented with 10% FCS to the concentration of 2×10^5 cells/ml. One hundred μl of the cell suspension and 100 μl of the two-fold serial dilution of the culture supernatant of PHA-stimulated mouse spleen cells described above were added to a 96-well flat-bottomed microtest plate. […] The IL-3 activity is expressed in U/ml as the dilution at which the absorbancy measured by MTT method was 50% of the maximum.

[3] = test system: human allogenic MLR (human peripheral blood lymphocytes); experiment: human allogenic MLR-suppressive activity, 3H-thymidine uptake; settings: for suppressive activity in human allogenic MLR (in words): 1 to 0.0001 μg/ml
Protocol: The human allogenic MLR-suppressive activity was assayed as follows:
Human peripheral blood lymphocytes obtained by Ficoll-Paque density gradient centrifugation of normal human peripheral blood were suspended in the RPMI1640 culture medium supplemented with 10% FCS, placed in a plastic dish, and cultured in an atmosphere of 5% carbon dioxide and 95% air at 37° C. for 2 hours. After termination of culture, the supernatant after gentle pipetting was collected and centrifuged (1000 rpm, for 5 minutes) to obtain plastic-nonadherent cells. The plastic-nonadherent cells were allowed to pass through a nylon-wool column to give nylon-nonadherent cells, and the concentration of the cell suspension was adjusted to 4×10^6 cells/ml by using the RPMI1640 culture medium supplemented with 10% FCS, and used as the responder cell suspension.
The plastic-adherent cells were removed from the plastic dish by vigorous pipetting after addition of phosphate buffered saline (PBS) supplemented with 5% FCS and 0.02% disodium ethylenediaminetetraacetic acid (EDTA). The plastic-adherent cells were treated with 40 μg/ml of mitomycin C at 37° C. for 60 minutes, washed three times, and suspended to the concentration of 4×10^6 cells/ml in the RPMI1640 culture medium supplemented with 10% FCS. The resultant suspension was used as the stimulator cell suspension.
After termination of culture, 37 KBq/well of ^3 H-thymidine was added, and after 18 hours of culture, the cells were harvested by a cell-harvester. The radioactivity incorporated into the cells was measured by a liquid scintillation counter, which was used as an index of blastogenic response of lymphocytes in human allogenic MLR. The suppression of human allogenic MLR was evaluated by calculating the percent suppression by the following formula. [formula]

CCCCCCC(O)C=CCCCCC=CCC(O)C(O)C(N)(CO)C(=O)O (stereo not drawn) [Example 1]
IL-2 activity ([1]; 0.001 μg/ml): 13.9 U/ml
IL-2 activity ([1]; 0.01 μg/ml): 6.1 U/ml
IL-2 activity ([1]; 0.1 μg/ml): 3.7 U/ml
IL-2 activity ([1]; 1 μg/ml): 2.0 U/ml
inhibition at 0.001 µg/mL ([1]; 0.001 μg/ml): 0%
inhibition at 0.01 µg/mL ([1]; 0.01 μg/ml): 49.6%
inhibition at 0.1 µg/mL ([1]; 0.1 μg/ml): 69.4%
inhibition at 1 µg/mL ([1]; 1 μg/ml): 83.5%
optical density (OD570) (CTLL-2 cells; 0.001 μg/ml, Table 6A): 0.508
optical density (OD570) (CTLL-2 cells; 0.01 μg/ml, Table 6A): 0.556
optical density (OD570) (CTLL-2 cells; 0.1 μg/ml, Table 6A): 0.009
optical density (OD570) (CTLL-2 cells; 1 μg/ml, Table 6A): 0.005
inhibition at 0.001 µg/mL (CTLL-2 cells; 0.001 μg/ml, Table 6A, read-out: Suppression): 13.3%
inhibition at 0.01 µg/mL (CTLL-2 cells; 0.01 μg/ml, Table 6A, read-out: Suppression): 5.1%
inhibition at 0.1 µg/mL (CTLL-2 cells; 0.1 μg/ml, Table 6A, read-out: Suppression): 98.6%
inhibition at 1 µg/mL (CTLL-2 cells; 1 μg/ml, Table 6A, read-out: Suppression): 99.3%
IL-3 activity ([2]; 0.001 μg/ml): 34.3 U/ml
IL-3 activity ([2]; 0.01 μg/ml): 27.9 U/ml
IL-3 activity ([2]; 0.1 μg/ml): 12.2 U/ml
IL-3 activity ([2]; 1 μg/ml): 10.5 U/ml
inhibition at 0.001 µg/mL ([2]; 0.001 μg/ml): 6.8%
inhibition at 0.01 µg/mL ([2]; 0.01 μg/ml): 24.2%
inhibition at 0.1 µg/mL ([2]; 0.1 μg/ml): 66.8%
inhibition at 1 µg/mL ([2]; 1 μg/ml): 71.5%
3H-thymidine uptake ([3]; 0.0001 μg/ml, Donor C/Donor D): 20334 cpm
3H-thymidine uptake ([3]; 0.001 μg/ml, Donor A/Donor B): 12137 cpm
3H-thymidine uptake ([3]; 0.001 μg/ml, Donor C/Donor D): 15284 cpm
3H-thymidine uptake ([3]; 0.01 μg/ml, Donor A/Donor B): 7479 cpm
3H-thymidine uptake ([3]; 0.01 μg/ml, Donor C/Donor D): 7232 cpm
3H-thymidine uptake ([3]; 0.1 μg/ml, Donor A/Donor B): 5590 cpm
3H-thymidine uptake ([3]; 0.1 μg/ml, Donor C/Donor D): 5292 cpm
3H-thymidine uptake ([3]; 1 μg/ml, Donor A/Donor B): 5613 cpm
3H-thymidine uptake ([3]; 1 μg/ml, Donor C/Donor D): 6689 cpm
suppressive activity in human allogenic MLR (in words) [3]: exhibited suppressive activity in human allogenic MLR in a concentration-dependent manner
inhibition at 0.0001 µg/mL ([3]; Homo sapiens, Lymphocyte, 0.0001 μg/ml, Donor C/Donor D, read-out: Suppression): 1.4%
inhibition at 0.001 µg/mL ([3]; Homo sapiens, Lymphocyte, 0.001 μg/ml, Donor A/Donor B, read-out: Suppression): 0%
inhibition at 0.001 µg/mL ([3]; Homo sapiens, Lymphocyte, 0.001 μg/ml, Donor C/Donor D, read-out: Suppression): 24.4%
inhibition at 0.01 µg/mL ([3]; Homo sapiens, Lymphocyte, 0.01 μg/ml, Donor A/Donor B, read-out: Suppression): 39.6%
inhibition at 0.01 µg/mL ([3]; Homo sapiens, Lymphocyte, 0.01 μg/ml, Donor C/Donor D, read-out: Suppression): 65.4%
inhibition at 0.1 µg/mL ([3]; Homo sapiens, Lymphocyte, 0.1 μg/ml, Donor A/Donor B, read-out: Suppression): 56.5%
inhibition at 0.1 µg/mL ([3]; Homo sapiens, Lymphocyte, 0.1 μg/ml, Donor C/Donor D, read-out: Suppression): 75.3%
inhibition at 1 µg/mL ([3]; Homo sapiens, Lymphocyte, 1 μg/ml, Donor A/Donor B, read-out: Suppression): 56.3%
inhibition at 1 µg/mL ([3]; Homo sapiens, Lymphocyte, 1 μg/ml, Donor C/Donor D, read-out: Suppression): 68.2%

CCCCCCCCCCCCCCCC[C@@H](O)[C@H](O)[C@@](N)(CO)C(=O)O [Example 2]
IL-2 activity ([1]; 0.001 μg/ml): 12.1 U/ml
IL-2 activity ([1]; 0.01 μg/ml): 7.0 U/ml
IL-2 activity ([1]; 0.1 μg/ml): 6.1 U/ml
IL-2 activity ([1]; 1 μg/ml): 3.7 U/ml
inhibition at 0.001 µg/mL [1]: 0%
inhibition at 0.01 µg/mL [1]: 42.1%
inhibition at 0.1 µg/mL [1]: 49.6%
inhibition at 1 µg/mL [1]: 69.4%
optical density (OD570) (CTLL-2 cells; 0.001 μg/ml, Table 6A): 0.555
optical density (OD570) (CTLL-2 cells; 0.001 μg/ml, Table 6B): 0.898
optical density (OD570) (CTLL-2 cells; 0.01 μg/ml, Table 6A): 0.543
optical density (OD570) (CTLL-2 cells; 0.01 μg/ml, Table 6B): 0.880
optical density (OD570) (CTLL-2 cells; 0.1 μg/ml, Table 6A): 0.558
optical density (OD570) (CTLL-2 cells; 0.1 μg/ml, Table 6B): 0.774
optical density (OD570) (CTLL-2 cells; 1 μg/ml, Table 6A): 0.161
optical density (OD570) (CTLL-2 cells; 1 μg/ml, Table 6B): 0.508
inhibition at 0.001 µg/mL (CTLL-2 cells; read-out: Suppression, 0.001 μg/ml, Table 6A): 5.3%
inhibition at 0.001 µg/mL (CTLL-2 cells; read-out: Suppression, 0.001 μg/ml, Table 6B): 6.7%
inhibition at 0.01 µg/mL (CTLL-2 cells; read-out: Suppression, 0.01 μg/ml, Table 6A): 7.4%
inhibition at 0.01 µg/mL (CTLL-2 cells; read-out: Suppression, 0.01 μg/ml, Table 6B): 8.7%
inhibition at 0.1 µg/mL (CTLL-2 cells; read-out: Suppression, 0.1 μg/ml, Table 6A): 4.8%
inhibition at 0.1 µg/mL (CTLL-2 cells; read-out: Suppression, 0.1 μg/ml, Table 6B): 20%
inhibition at 1 µg/mL (CTLL-2 cells; read-out: Suppression, 1 μg/ml, Table 6A): 72.6%
inhibition at 1 µg/mL (CTLL-2 cells; read-out: Suppression, 1 μg/ml, Table 6B): 48.4%
IL-3 activity ([2]; 0.001 μg/ml): 26.0 U/ml
IL-3 activity ([2]; 0.01 μg/ml): 13.9 U/ml
IL-3 activity ([2]; 0.1 μg/ml): 11.3 U/ml
IL-3 activity ([2]; 1 μg/ml): 7.5 U/ml
inhibition at 0.001 µg/mL [2]: 29.3%
inhibition at 0.01 µg/mL [2]: 62.2%
inhibition at 0.1 µg/mL [2]: 69.3%
inhibition at 1 µg/mL [2]: 79.6%
3H-thymidine uptake ([3]; 0.00001 μg/ml, Donor C/Donor D): 13909 cpm
3H-thymidine uptake ([3]; 0.0001 μg/ml, Donor C/Donor D): 15259 cpm
3H-thymidine uptake ([3]; 0.001 μg/ml, Donor A/Donor B): 9258 cpm
3H-thymidine uptake ([3]; 0.001 μg/ml, Donor C/Donor D): 15503 cpm
3H-thymidine uptake ([3]; 0.01 μg/ml, Donor A/Donor B): 8119 cpm
3H-thymidine uptake ([3]; 0.01 μg/ml, Donor C/Donor D): 11263 cpm
3H-thymidine uptake ([3]; 0.1 μg/ml, Donor A/Donor B): 4624 cpm
3H-thymidine uptake ([3]; 0.1 μg/ml, Donor C/Donor D): 7300 cpm
3H-thymidine uptake ([3]; 1 μg/ml, Donor A/Donor B): 7130 cpm
3H-thymidine uptake ([3]; 1 μg/ml, Donor C/Donor D): 6583 cpm
suppressive activity in human allogenic MLR (in words) [3]: exhibited suppressive activity in human allogenic MLR in a concentration-dependent manner
inhibition at 10 pg/mL ([3]; Homo sapiens, Lymphocyte, read-out: Suppression, 0.00001 μg/ml, Donor C/Donor D): 31.4%
inhibition at 0.0001 µg/mL ([3]; Homo sapiens, Lymphocyte, read-out: Suppression, 0.0001 μg/ml, Donor C/Donor D): 24.5%
inhibition at 0.001 µg/mL ([3]; Homo sapiens, Lymphocyte, read-out: Suppression, 0.001 μg/ml, Donor A/Donor B): 23.6%
inhibition at 0.001 µg/mL ([3]; Homo sapiens, Lymphocyte, read-out: Suppression, 0.001 μg/ml, Donor C/Donor D): 23.2%
inhibition at 0.01 µg/mL ([3]; Homo sapiens, Lymphocyte, read-out: Suppression, 0.01 μg/ml, Donor A/Donor B): 33.8%
inhibition at 0.01 µg/mL ([3]; Homo sapiens, Lymphocyte, read-out: Suppression, 0.01 μg/ml, Donor C/Donor D): 44.9%
inhibition at 0.1 µg/mL ([3]; Homo sapiens, Lymphocyte, read-out: Suppression, 0.1 μg/ml, Donor A/Donor B): 65.2%
inhibition at 0.1 µg/mL ([3]; Homo sapiens, Lymphocyte, read-out: Suppression, 0.1 μg/ml, Donor C/Donor D): 65%
inhibition at 1 µg/mL ([3]; Homo sapiens, Lymphocyte, read-out: Suppression, 1 μg/ml, Donor A/Donor B): 42.7%
inhibition at 1 µg/mL ([3]; Homo sapiens, Lymphocyte, read-out: Suppression, 1 μg/ml, Donor C/Donor D): 68.7%
